From patent US10618913B2, “Macrocycles as PDE1 inhibitors” (H. Lundbeck A/S, priority 2017, dated 2020)
Read-outs that look alike come from different tables or passages of the source.

Experiments:
Type in all cases: biochemical
PDE1A = PDE1A (Homo sapiens (Human), UniProt P54750); assay: PDE1 inhibition assay (SPA, tritium labelled cAMP), PDE1A; conditions: Table 1, compounds of the invention; 15 nM tritium labelled cAMP
Method: (§1) Reactions were initiated by addition of the cyclic nucleotide substrate, and reactions were allowed to proceed for 1 hr at room temperature before being terminated through mixing with 20 μL (0.2 mg) yttrium silicate SPA beads (PerkinElmer).

PDE1B = PDE1B (Homo sapiens (Human), UniProt Q01064); assay: PDE1 inhibition assay (SPA, tritium labelled cAMP), PDE1B
Method: as §1

PDE1C = PDE1C (Homo sapiens (Human), UniProt Q14123); assay: PDE1 inhibition assay (SPA, tritium labelled cAMP), PDE1C; conditions: Table 1, compounds of the invention; 15 nM tritium labelled cAMP
Method: Reactions were initiated by addition of the cyclic nucleotide substrate, and reactions were allowed to proceed for 1 hr at room temperature before being terminated through mixing with 20 μL (0.2 mg) yttrium silicate SPA beads (PerkinElmer). The beads were allowed to settle for 1 hr in the dark before the plates were counted in a Wallac 1450 Microbeta counter.

[1] = Table 1, compounds of the invention, 15 nM tritium labelled cAMP, read-out: PDE1B, IC50

Sequence of PDE1B (Q01064 whole entry): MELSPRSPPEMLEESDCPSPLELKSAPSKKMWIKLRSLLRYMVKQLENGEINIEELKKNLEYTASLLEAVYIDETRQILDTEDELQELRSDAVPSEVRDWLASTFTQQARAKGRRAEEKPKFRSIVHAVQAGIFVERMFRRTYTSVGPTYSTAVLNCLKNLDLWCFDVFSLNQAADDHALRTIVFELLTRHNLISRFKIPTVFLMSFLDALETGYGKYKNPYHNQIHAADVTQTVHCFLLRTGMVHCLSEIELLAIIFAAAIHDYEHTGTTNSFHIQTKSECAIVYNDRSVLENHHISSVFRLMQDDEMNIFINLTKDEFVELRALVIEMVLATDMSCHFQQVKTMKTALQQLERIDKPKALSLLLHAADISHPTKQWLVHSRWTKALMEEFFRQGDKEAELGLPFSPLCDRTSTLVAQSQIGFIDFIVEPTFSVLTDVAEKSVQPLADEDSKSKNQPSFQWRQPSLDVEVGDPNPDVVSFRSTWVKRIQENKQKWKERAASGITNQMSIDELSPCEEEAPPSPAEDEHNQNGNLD
Sequence of PDE1A (P54750 whole entry): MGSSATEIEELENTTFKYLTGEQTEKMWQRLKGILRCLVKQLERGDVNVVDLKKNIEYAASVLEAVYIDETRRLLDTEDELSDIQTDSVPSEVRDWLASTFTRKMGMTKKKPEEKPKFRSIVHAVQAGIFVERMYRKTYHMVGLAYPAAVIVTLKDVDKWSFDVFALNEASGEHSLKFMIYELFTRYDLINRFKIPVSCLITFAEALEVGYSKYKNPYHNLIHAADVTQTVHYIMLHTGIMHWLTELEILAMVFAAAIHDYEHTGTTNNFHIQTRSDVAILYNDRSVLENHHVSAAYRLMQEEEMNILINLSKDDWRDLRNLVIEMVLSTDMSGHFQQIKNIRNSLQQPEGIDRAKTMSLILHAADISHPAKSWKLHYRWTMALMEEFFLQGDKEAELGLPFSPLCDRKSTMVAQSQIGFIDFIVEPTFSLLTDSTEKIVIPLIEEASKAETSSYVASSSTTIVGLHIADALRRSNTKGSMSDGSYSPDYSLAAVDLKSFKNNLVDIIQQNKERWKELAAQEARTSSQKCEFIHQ
Sequence of PDE1C (Q14123 whole entry): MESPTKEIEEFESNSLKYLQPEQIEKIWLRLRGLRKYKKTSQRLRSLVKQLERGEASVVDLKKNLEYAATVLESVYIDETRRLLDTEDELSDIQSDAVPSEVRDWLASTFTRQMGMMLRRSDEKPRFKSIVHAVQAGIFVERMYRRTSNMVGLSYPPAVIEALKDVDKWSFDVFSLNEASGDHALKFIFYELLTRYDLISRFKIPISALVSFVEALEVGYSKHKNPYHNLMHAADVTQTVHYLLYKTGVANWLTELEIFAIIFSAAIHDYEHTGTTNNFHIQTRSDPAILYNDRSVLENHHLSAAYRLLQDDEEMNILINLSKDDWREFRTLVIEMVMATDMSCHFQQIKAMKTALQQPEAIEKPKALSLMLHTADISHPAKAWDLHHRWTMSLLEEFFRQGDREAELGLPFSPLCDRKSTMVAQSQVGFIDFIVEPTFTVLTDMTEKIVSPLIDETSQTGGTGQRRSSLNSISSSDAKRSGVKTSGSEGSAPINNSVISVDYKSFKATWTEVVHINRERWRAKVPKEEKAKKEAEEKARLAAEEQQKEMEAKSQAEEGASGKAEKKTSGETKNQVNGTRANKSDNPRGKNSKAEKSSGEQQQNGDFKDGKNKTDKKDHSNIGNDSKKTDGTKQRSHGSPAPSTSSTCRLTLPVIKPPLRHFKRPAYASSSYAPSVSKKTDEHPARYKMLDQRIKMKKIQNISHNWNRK

IC50 (PDE1A) [nM]	IC50 (PDE1B; [1]) [nM]	IC50 (PDE1C) [nM]	inhibition at 10 µM (PDE1B; read-out: PDE1B, inhibition at 10 μM) [%]	IC50 (PDE1B) [nM]	Compound
38	4.2	69			Cc1nn(C(C)C)c2c3cc(nc12)-c1cccnc1OCCCOc1ncccc1CN3 [Example 3, 2^1-isopropyl-2^3-methyl-2^1H-6,10-dioxa-3-aza-2(5,7)-pyrazolo[4,3-b]pyridina-1,5(3,2)-dipyridinacyclodecaphane]
10		17	> 99		Cc1nn(C(C)C)c2c3cc(nc12)-c1cccnc1OCCCCOc1nccnc1CN3 [Example 10, 2^1-isopropyl-2^3-methyl-2^1H-6,11-dioxa-3-aza-2(5,7)-pyrazolo[4,3-b]pyridina-5(2,3)-pyrazina-1(3,2)-pyridinacycloundecaphane]
12		20		1.4	Cc1nn(C(C)C)c2c3cc(nc12)-c1cccnc1OCCCCOc1ncccc1CN3 [Example 1, 2^1-isopropyl-2^3-methyl-2^1H-6,11-dioxa-3-aza-2(5,7)-pyrazolo[4,3-b]pyridina-1,5(3,2)-dipyridinacycloundecaphane]
428	95	497			Cc1nn(C)c2c3cc(nc12)-c1cccnc1OCCCCOc1ncccc1CN3 [Example 7, 2^1,2^3-dimethyl-2^1H-6,11-dioxa-3-aza-2(5,7)-pyrazolo[4,3-b]pyridina-1,5(3,2)-dipyridinacycloundecaphane]
18	1.5	54			Cc1nn(C(C)C)c2c3cc(nc12)-c1cccnc1OCCCCCOc1ncccc1CN3 [Example 2, 2^1-isopropyl-2^3-methyl-2^1H-6,12-dioxa-3-aza-2(5,7)-pyrazolo[4,3-b]pyridina-1,5(3,2)-dipyridinacyclododecaphane]
2.6	0.54	16			Cc1nn(C(C)C)c2c3cc(nc12)-c1cccnc1OCCOCCOc1ncccc1CN3 [Example 4, 2^1-isopropyl-2^3-methyl-2^1H-6,9,12-trioxa-3-aza-2(5,7)-pyrazolo[4,3-b]pyridina-1,5(3,2)-dipyridinacyclododecaphane]
25	4.7	80			Cc1nn(C(C)C)c2c3cc(nc12)-c1cccnc1OCCCCCn1nccc1CN3 [Example 5, 2^1-isopropyl-2^3-methyl-2^1H,5^1H-11-oxa-3-aza-2(5,7)-pyrazolo[4,3-b]pyridina-1(3,2)-pyridina-5(5,1)-pyrazolacycloundecaphane]
0.47	0.27	3.9			Cc1nn(C(C)C)c2c3cc(nc12)-c1cccnc1OCCCCOc1cccnc1CN3 [Example 6, 2^1-isopropyl-2^3-methyl-2^1H-6,11-dioxa-3-aza-2(5,7)-pyrazolo[4,3-b]pyridina-1(3,2),5(2,3)-dipyridinacycloundecaphane]
256	36	412			CCn1nc(C)c2nc3cc(c21)NCc1cccnc1OCCCCOc1ncccc1-3 [Example 8, 2^1-ethyl-2^3-methyl-2^1H-6,11-dioxa-3-aza-2(5,7)-pyrazolo[4,3-b]pyridina-1,5(3,2)-dipyridinacycloundecaphane]
53	15	56			Cc1nn(C(C)C)c2c3cc(nc12)-c1cccnc1OCCCCn1nccc1CN3 [Example 9, 2^1-isopropyl-2^3-methyl-2^1H,5^1H-10-oxa-3-aza-2(5,7)-pyrazolo[4,3-b]pyridina-1(3,2)-pyridina-5(5,1)-pyrazolacyclodecaphane]
